In patent US10278964B2, “Medical treatments based on anamorelin” (HELSINN HEALTHCARE SA, priority 2014, dated 2019):
Values joined by “and” are separate entries in the source; they are usually repeats but may differ in a detail not shown here. Equal values may be shown once. “Also recorded” adds a separate entry of the source.

Tests used:
[1] = system: patients with NSCLC-Cachexia; experiment: Romana 1: randomized, double-blind, placebo-controlled phase 3 study of anamorelin HCl; format: in vivo, human; conditions: for Fatigue Domain of FACIT-F, change from baseline, subgroup / Simplified Evaluation of Fatigue (SEF), change from baseline, subgroup: MITT
Excerpt: Example 1 Anamorelin HCl in the Treatment of Non-Small Cell Lung Cancer—Cachexia (NSCLC-C): A Randomized, Double-Blind, Placebo-Controlled, Multicenter, Phase III Study to Evaluate the Safety and Efficacy of Anamorelin HCl in Patients with NSCLC-C(Romana 1)
(§1) Key features of the Romana 1 study are as follows: • DESIGN: randomized, double-blind, placebo-controlled, multicenter, phase 3 study to evaluate the safety and efficacy of anamorelin HCl (anamorelin) in patients with NSCLC-Cachexia (59 sites; 15 countries) • PRIMARY ENDPOINT: Lean body mass (LBM) by DXA • SECONDARY ENDPOINTS: • Key: pooled overall survival, Anorexia/Cachexia sub-domain, Fatigue sub-domain, Simplified Evaluation of Appetite (SEA), and Simplified Evaluation of Fatigue (SEF) • Other: Body weight, study specific overall survival, FAACT/FACIT-F trial outcome index (TOI) and total scores, additional LBM analyses • EXPLORATORY ENDPOINTS: Hunger Assessment Scale (HAS), Karnofsky (KPS), responder analyses; Population pharmacokinetics (PK) in 90 patients • STUDY POPULATION: advanced NSCLC (unresectable Stage III or IV) and cachexia (≥5% body weight within 6 months or screening BMI<20 kg/m^2) • SAMPLE SIZE: 484 patients; randomization ratio 2:1 (anamorelin:placebo) • DOSING: placebo or 100 mg anamorelin for 12 weeks • SAFETY ASSESSMENTS: Adverse events (AEs), labs, vitals, ECGs

[2] = system: patients with NSCLC-Cachexia; experiment: Romana 2: randomized, double-blind, placebo-controlled phase 3 study of anamorelin HCl; format: in vivo, human
Excerpt: Example 2 Anamorelin HCL in the Treatment of Non-Small Cell Lung Cancer—Cachexia (NSCLC-C): A Randomized, Double-Blind, Placebo-Controlled, Multicenter, Phase III Study to Evaluate the Safety and Efficacy of Anamorelin Hcl in Patients with NSCLC-C(Romana 2)
as §1, with “Romana 2” for “Romana 1”, “SIZE: 495” for “SIZE: 484”

healthy subjects [3] = conditions: 50 or 75 mg doses; after 6 days; cited from earlier work
healthy subjects [4] = conditions: cited from earlier work
[5] = system: patients with various cancers and cachexia; conditions: 50 mg once per day; cited from earlier work
[6] = system: patients with various cancers with cachexia; conditions: 50 mg once per day, cited from earlier work
[7] = system: patients with advanced non-small cell lung cancer (NSCLC); conditions: cited from earlier work
[8] = system: patients with cancer anorexia-cachexia syndrome; conditions: cited from earlier work
[9] = system: patients with advanced cancer and cachexia; conditions: after 4 weeks; cited from earlier work
[10] = ITT population, 100 mg anamorelin for 12 weeks, LBM by DXA
[11] = ITT population, over 12 weeks, 100 mg
[12] = MITT population, 12-week study period, anamorelin vs. placebo
[13] = MITT population, over 12 weeks, 100 mg
[14] = anamorelin treatment for 12 weeks

CN(C)N(C)C(=O)[C@@]1(Cc2ccccc2)CCCN(C(=O)[C@@H](Cc2c[nH]c3ccccc23)NC(=O)C(C)(C)N)C1 [anamorelin]
Lean Body Mass, median change from baseline over 12 weeks [1, 10]: 1.10 kg
Lean Body Mass, median treatment difference (anamorelin vs. placebo) [1, 11]: 1.54 kg
FAACT TOI, overall treatment difference [1, 12]: 2.86±1.161
FAACT Total, overall treatment difference [1, 12]: 2.67±1.459
FACIT TOI, overall treatment difference [1, 12]: 1.90±1.358
FACIT Total, overall treatment difference [1, 12]: 2.07±1.651
Anorexia/Cachexia Domain, Treatment Difference (anamorelin vs. placebo), LS Mean (SE) [1, 13]: 2.21 (0.617)
Body Weight, Treatment Difference (anamorelin vs. placebo), LS Mean (SE) [1, 13]: 2.07 (0.325) kg
Body Weight, overall change from baseline, LS Mean (SE) [1, 13]: 2.20±0.3 kg and 2.20 (0.326) kg
FACIT-F Fatigue Domain, change from baseline, LS Mean (SE) [1, 13]: 0.26 (0.886)
SEA Score, Treatment Difference (anamorelin vs. placebo), LS Mean (SE) [1, 13]: 0.65 (0.262)
SEA Score, change from baseline, LS Mean (SE) [1, 13]: 1.57 (0.317)
SEF Score, Treatment Difference (anamorelin vs. placebo), LS Mean (SE) [1, 13]: 0.33 (0.265)
SEF Score, change from baseline, LS Mean (SE) [1, 13]: 0.11 (0.309)
Fatigue Domain of FACIT-F, change from baseline, subgroup ([1]; BMI>18.5, Week 3 to 12): smaller improvement trend
Simplified Evaluation of Fatigue (SEF), change from baseline, subgroup ([1]; BMI≤18.5 (statistically significant at Week 3 and 6)): improvement trend over 12 Weeks
Fatigue Domain of FACIT-F, change from baseline, subgroup ([1]; ECOG 0-1, Week 3, 6, 9 to 12): gap increase between placebo and anamorelin
Fatigue Domain of FACIT-F, change from baseline, subgroup ([1]; aged 65 years and younger, concomitant opioid use, ECOG 2 (Weeks 9 and 12), BMI≤18.5): statistically significant improvement
Simplified Evaluation of Fatigue (SEF), change from baseline, subgroup ([1]; concomitant opioid use): small trend of improvement
Fatigue Domain of FACIT-F, change from baseline, subgroup ([1]; males, Week 3 to 6 (statistically significant at Week 9)): general improvement trend
Fatigue Domain of FACIT-F, change from baseline, subgroup ([1]; no-concomitant opioid use): smaller overall improvement trend
Tolerability [1, 14]: well tolerated
Percentage change from baseline in LBM ([1]; throughout the 12-week study): consistent improvement
FACIT-F score (fatigue), change from baseline ([1]; week 9, 100 mg): 0.33±0.9
FACIT-F score (fatigue), change from baseline ([1]; week 12, 100 mg): 0.48±1.0
Lean Body Mass, median change from baseline over 12 weeks [2, 10]: 0.75
Lean Body Mass, median treatment difference (anamorelin vs. placebo) [2, 11]: 1.71
FAACT TOI and total score (cachexia concerns) ([2]; MITT population): trending benefit
FACIT-F TOI and total score ([2]; MITT population): No benefit
SEF score vs. placebo ([2]; MITT population, 12-week study period): overall small trend of improvement; also recorded: not statistically different from placebo
Anorexia/Cachexia Domain, Treatment Difference (anamorelin vs. placebo), LS Mean (SE) [2, 13]: 2.14 (0.676)
Body Weight, Treatment Difference (anamorelin vs. placebo), LS Mean (SE) [2, 13]: 1.53 (0.327) kg
Body Weight, overall change from baseline, LS Mean (SE) [2, 13]: 0.95 (0.386) kg
FAACT Anorexia/Cachexia Domain, change from baseline, LS Mean (SE) [2, 13]: 3.48 (0.944)
SEA Score, Treatment Difference (anamorelin vs. placebo), LS Mean (SE) [2, 13]: 0.66 (0.283)
SEA Score, change from baseline, LS Mean (SE) [2, 13]: 1.08 (0.400)
FACIT-F fatigue score, subgroup ([2]; MITT, BMI less than or equal to 18.5): maintained a steady score after Week 3
FACIT-F fatigue score, subgroup ([2]; MITT, ECOG of 2): general trend of improvement
SEF score, subgroups ([2]; MITT, concomitant opioid use and BMI≤18.5): Specific improvements
FACIT-F fatigue score, subgroup ([2]; MITT, concomitantly taking opioids, after Week 3): did not experience as severe of a decline in score as those in the placebo group
FACIT-F fatigue score, subgroup ([2]; MITT, patients under the age of 65, after Week 3): did not experience as severe of a decline in score as those in the placebo group
Tolerability [2, 14]: well tolerated
Concerns related to weight and body image (FAACT) ([2]; in vivo): an improvement
Percentage of change in LBM ([2]; in vivo): consistent increases
Symptoms of early satiety and appetite (individual FAACT questions), change from baseline over time ([2]; in vivo): showed an improvement
Body weight gain versus placebo (healthy subjects [3]): significant dose-related weight gain
Body weight (healthy subjects [4]; 50 mg dose (single or split dose) and 75 mg dose): significant increases
GH levels (healthy subjects [4]; all doses (25, 50, 75 mg)): significantly increased
IGF-1 levels (healthy subjects [4]; all doses (25, 50, 75 mg)): significantly increased
Appetite as measured by BACRI-7 [5]: no significant difference
Body weight compared with placebo [5]: significantly increased
Enjoyment from eating (BACRI-7) [5]: significantly more patients reported greater enjoyment from eating
FACIT-F scores [5]: significantly increased
Food intake [5]: increased but not significantly
GH levels [5]: significantly increased
IGF-1 levels [5]: significantly increased
IGFBP-3 levels [5]: significantly increased
Patient-reported appetite as measured by ASAS [5]: significantly improved
ASAS scores [6]: improved
Fat mass decrease vs. placebo [6]: the difference did not reach statistical significance
Quality of life as measured by the FACIT-F test [6]: No significant effects
Scale weight measures [6]: no corresponding increase
Levels of IGF-1 ([6]; weeks 4, 8, and 12): significantly increased
Levels of IGFBP-3 ([6]; weeks 4, 8, and 12): significantly increased
Lean body mass compared to placebo ([6]; weeks 4 and 8): significantly increased
Total body mass compared to placebo ([6]; weeks 4 and 8): significantly increased
Average weight gain from baseline to week 12 ([7]; 100 mg once daily): statistically significant average weight gain
IGFBP-3 as compared to placebo ([7]; 50 or 100 mg once daily): statistically significant increases
MD Anderson Symptom Inventory (MDASI) scores ([7]; 50 or 100 mg once daily): the improvement was not significant

CC(=O)O[C@]1(C(C)=O)CC[C@H]2[C@@H]3C=C(C)C4=CC(=O)CC[C@]4(C)[C@H]3CC[C@@]21C [megestrol acetate]
Quality of life in cancer cachexia patients ([8]; 13 of 14 studies no significant difference vs placebo, dronabinol, eicosapentaenoic acid or glucocorticosteroids): has not been shown to improve
Body weight and water ([8]; human, in vivo): only been shown to increase body weight and water
Fat mass or lean body mass ([8]; human, in vivo): does not improve

COc1ccc2[nH]cc(CCNC(C)=O)c2c1 [melatonin]
Weight, body composition (including fat-free mass), symptom scores, quality-of-life outcomes (FACIT-F and FAACT) vs placebo [9]: No differences
